For test [1], the system named is AML-193. Kind of test: Sensitivity of AML cell lines to drug treatment (MTS assay). It is filed as cell-based. Particulars: 72 h. As to the method: (§1) Sensitivity of AML cell lines to drug treatment. Eight cell lines (AML-193, CMK, CTS, HEL, Kasumi-1, KG-1, MV4-11 and P31/FUJ) were seeded in 96 well plates at 1×10^5 cell/ml in triplicate for each condition. After a recovery period of 2 h, cells were treated with increasing concentrations (1 nM, 10 nM, 100 nM, 1 μM and 10 μM) of FLT3 inhibitor, MEK I inhibitor, JAK I inhibitor, LY294002, PI-103 and IC87114. As controls, cells were both treated with the vehicle (DMSO) and left untreated. After 72 hours treatment, cell viability was assessed by MTS assay (CellTiter 96® AQueous One Solution Cell Proliferation assay, Promega Corporation, Madison, Wis., USA).
Background: Tetrazolium dyes change colour on reduction, which living cells bring about.

In test [2] the test system is HEL. The description is as above. As to conditions: 72 h. It is filed as cell-based. As to the method: as §1
Test [3] concerns MV4-11. Described as above. It is filed as cell-based. As to conditions: 72 h. On the procedure: as §1
For test [4], the system named is P31/FUJ. The test is described as above. Type of test: cell-based. Particulars: 72 h. As to the method: as §1
The subject of test [5] is NIH-3T3 fibroblasts. As to the kind of experiment: TIQUAS quantification of phosphorylation sites in starved, serum-stimulated cells with or without wortmannin pre-incubation. As to conditions: of 2,350 phosphorylated peptides quantified; WM treatment of cells prior to serum stimulation; 4 experiments. It is filed as cell-based, murine. On the procedure:
The novel quantitative techniques of the invention were used to quantify phosphorylation sites in NIH-3T3 fibroblasts, which were starved and then stimulated with serum with or without pre-incubation with the pan-PI3K inhibitor wortmannin (WM). These experiments were performed 4 times. […] Cells were treated as indicated, lysed with a urea-based buffer to obtain nuclear as well as cytosolic proteins and proteins digested. Resultant phosphorylated peptides were enriched by IMAC and TiO2 chromatography and quantified by LC-MS using a computer program developed by the inventors ([…]) (Cutillas and Vanhaesebroeck, Molecular & Cellular Proteomics 6, 1560-1573 (2007)). FIG. 2(B) gives a summary of the data obtained and a snapshot of the data sorted by probability.

`CC(C)(C)c1nc2c3cc[nH]c(=O)c3c3cc(F)ccc3c2[nH]1` [JAK I]: the results for the “sensitivity of cell line to inhibitor (survival by MTS assay)” value in test [1] and in test [2] were “sensitive” and “resistant”, respectively.

As for `Oc1cccc(-c2nc(N3CCOCC3)c3oc4ncccc4c3n2)c1` [PI-103], the results for the “sensitivity of cell line to inhibitor (survival by MTS assay)” value in test [3] and in test [4] were “sensitive” and “resistant”, respectively.

For the molecule `COC[C@H]1OC(=O)c2coc3c2[C@@]1(C)C1=C(C3=O)[C@@H]2CCC(=O)[C@@]2(C)C[C@H]1OC(C)=O` [WM, wortmannin], the “phosphorylated peptides significantly (p<0.05) affected by WM treatment” value in test [5] amounted to 265.

(Values after patent publication US9110076B2, “Method for quantifying modified peptides” (HVIVO SERVICES LIMITED, priority 2009, dated 2015).)
